Results on seven compounds are retold here after patent US5650415A, “Quinoline compounds” (Sugen, Inc., priority 1995, dated 1997).

One experiment concerns the target T1, EGFR (Homo sapiens, UniProt P00533).
T1 construct: expressed in transfected cells; host or cells: NIH3T3 clone C7 (EGFR/C7)
In words: EGFR Whole Cell Kinase Assay (ELISA). It counts as cell-based. To be noted: NIH3T3 clone C7 over-expressing human EGF receptor. An excerpt: (§1) The following examples illustrates the ability of the exemplary compounds to inhibit receptor tyrosine kinases, such as HER2 and/or EGFR. The following target cells were used for cellular kinase assays: NIH3T3 clone C7 (Honegger et al., supra) engineered to over-express human EGF receptor; NIH3T3 cells engineered to over-express a chimeric receptor containing the EGFR extracellular domain and the HER2 intracellular kinase domain; the human mammary carcinoma line BT474 (ATCC HTB2) expressing HER2; and the human glioblastoma line U1242 that expresses PDGFR-beta. Growth assays were carried out using human mammary epithelial SKBR3 (ATCC HTB30) cells (SKBR3 cells over-express HER2), SKOV3 (AT(D(D HTB77) human ovarian cancer cell line (SKOV3 cells also over-express HER2), A431 cells (A431 cells over-express EGFR) MCF7 human breast carcinoma cells, MCF7 cells overexpressing the HER2 kinase (MCF7-HER2), NIH3T3 cells, and NIH3T3 cells overexpressing the HER2 kinase (3T3-HER2.
EGFR Whole Cell Kinase Assay
EGFR kinase activity (EGFR-3T3 assay) in whole cells was measured as described below:
A. Coat ELISA plates (Corning, 96 well, Cat. #25805-96) with 05-101 antibody at 0.5 μg per well in PBS, 150 μl final volume/well, and store overnight at 4.sunburst. C. Coated plates are good for up to 10 days when stored at 4.sunburst. C.
B. On day of use, remove coating buffer and replace with blocking buffer (5% Carnation Instant NonFat Dry Milk in PBS). Incubate the plate, shaking, at room temperature (about 23.sunburst. C. to 25.sunburst. C.) for 30 minutes. Just prior to use, remove blocking buffer and wash plate 4 times with TBST buffer.
A. EGFR/C7 cell line (Honegger, et al., supra) can be used for this assay.
B. Choose dishes having 80-90% confluence for the experiment. Trypsinize cells and stop reaction by adding 10% CS DMEM medium. Suspend cells in DMEM medium (10% CS DMEM medium) and centrifuge once at 1000 rpm, and once at room temperature for 5 minutes.
C. Resuspend cells in seeding medium (DMEM, 0.5% bovine serum), and count the cells using trypan blue. Viability above 90% is acceptable. Seed cells in DMEM medium (0.5% bovine serum) at a density of 10,000 cells per well, 100 μl per well, in a 96 well microtiter plate. Incubate seeded cells in 5% CO2 at 37.sunburst. C. for about 40 hours.
A. Check seeded cells for contamination using an inverted microscope. Dilute drug stock (10 mg/ml in DMSO) 1:10 in DMEM medium, then transfer 5 μl to a test well for a final drug dilution of 1:200 and a final DMSO concentration of […]. Control wells receive DMSO alone. Incubate in 5% CO2 at 37° C. for one hour.
B. Prepare EGF ligand: dilute stock EGF in DMEM so that upon transfer of 10 μl dilute EGF (1:12 dilution), 25 nM final concentration is attained.
C. Prepare fresh HNTG* sufficient for 100 μl per well; and place on ice.
D. After two hours incubation with drug, add prepared EGF ligand to cells, 10 μl per well, to yield a final concentration of 25 nM. Control wells receive DMEM alone. Incubate, shaking, at room temperature, for 5 minutes.
E. Remove drug, EGF, and DMEM. Wash cells twice with PBS. Transfer HNTG* to cells, 100 μl per well. Place on ice for 5 minutes. Meanwhile, remove blocking buffer from other ELISA plate and wash with TBST as described above.
F. With a pipette tip securely fitted to a micropipettor, scrape cells from plate and homogenize cell material by repeatedly aspirating and dispensing the HNTG* lysis buffer. Transfer lysate to a coated, blocked, and washed ELISA plate. Incubate shaking at room temperature for one hour.
G. Remove lysate and wash 4 times with TBST. Transfer freshly diluted anti-Ptyr antibody to ELISA plate at 100 μl per well. Incubate shaking at room temperature for 30 minutes in the presence of the anti-Ptyr antiserum (1:3000 dilution in TBST).
H. Remove the anti-Ptyr antibody and wash 4 times with TBST. […]
Background: In an ELISA, binding on a coated surface is turned into a signal by an enzyme label.

The next experiment addresses T2, PDGFR (Homo sapiens, UniProt P09619).
T2 construct: endogenous in cells; host or cells: U1242 MG human glioblastoma cells
In words: PDGF-R Cellular Assay (ELISA). The experiment is classed as cell-based. As to conditions: U1242 human glioblastoma cells.
Text: as §1
The PDGF cellular kinase assay was carried out as follows: cells are lysed in 0.2M Hepes, 0.15M NaCl, 10% VN glycerol, 0.04% Triton X-100, 5 mM EDTA, 5 mM Na+ vanadate and 2 mM Na+ pyrophosphate; cell lysates are then added to an ELISA plate coated with an anti-PDGF receptor antibody (Genzyme); ELISA plates are coated at 0.5 μg of antibody/well in 150 μl of PBS for 18 hours at 4° C. prior to the addition of the lysate; the lysate is incubated in the coated plates for 1 hour and then washed four times in TBST (35 mM Tris-HCl pH 7.0, 0.15M NaCl, 0.1% Triton X100); anti-phosphotyrosine antibody (100 μl in PBS) is added and the mixture is incubated for 30 minutes at room temperature; the wells were then washed four times in TBST, a secondary antibody conjugated to POD (TAGO) is added to each well, and the treated well are incubated for 30 minutes at room temperature; the wells are then washed four times in TBST, ABTS/H2 O2 solution is added to each well and the wells are incubated for two minutes; absorbance is then measured at 410 nm.
U1242 MG cells were plated in 96-well plates at a concentration of 5×10^4 cells/well in cultured media containing 0.5% FBS. The cells were incubated for 24 hours. The cells were then treated with a particular compound for 2 hours followed by the addition of 100 ng/ml PDGF-BB and incubation for 10 minutes.
Cells were lysed in 0.2M Hepes, 0.15M NaCl, 10% VN glycerol, 0.04% Triton X-100, 5 mM EDTA, 5 mM Na^+ vanadate and 2 mM Na^+ pyrophosphate. Cell lysates were then added to an ELISA plate coated with an anti-PDGF receptor antibody (Genzyme). ELISA plates were coated at 0.5 μg of antibody/well in 150 μl of PBS for 18 hours at 4° C. prior to the addition of the lysate.
The lysate was incubated in the coated plates for 1 hour and then washed four times in TBST (35 mM Tris-HCl pH 7.0, 0.15M NaCl, 0.1% Triton X-100). Anti-phosphotyrosine antibody (100 μl in PBS) was added and the mixture was incubated for 30 minutes at room temperature. The wells were then washed four times in TBST, a secondary antibody conjugated to POD (TAGO) was added to each well, and the treated well were incubated for 30 minutes at room temperature. The wells were then washed four times in TBST, ABTS/H2 O2 solution was added to each well and the wells were incubated for two minutes. Absorbance was then measured at 410 nm.

T1 sequence (P00533 25-1210): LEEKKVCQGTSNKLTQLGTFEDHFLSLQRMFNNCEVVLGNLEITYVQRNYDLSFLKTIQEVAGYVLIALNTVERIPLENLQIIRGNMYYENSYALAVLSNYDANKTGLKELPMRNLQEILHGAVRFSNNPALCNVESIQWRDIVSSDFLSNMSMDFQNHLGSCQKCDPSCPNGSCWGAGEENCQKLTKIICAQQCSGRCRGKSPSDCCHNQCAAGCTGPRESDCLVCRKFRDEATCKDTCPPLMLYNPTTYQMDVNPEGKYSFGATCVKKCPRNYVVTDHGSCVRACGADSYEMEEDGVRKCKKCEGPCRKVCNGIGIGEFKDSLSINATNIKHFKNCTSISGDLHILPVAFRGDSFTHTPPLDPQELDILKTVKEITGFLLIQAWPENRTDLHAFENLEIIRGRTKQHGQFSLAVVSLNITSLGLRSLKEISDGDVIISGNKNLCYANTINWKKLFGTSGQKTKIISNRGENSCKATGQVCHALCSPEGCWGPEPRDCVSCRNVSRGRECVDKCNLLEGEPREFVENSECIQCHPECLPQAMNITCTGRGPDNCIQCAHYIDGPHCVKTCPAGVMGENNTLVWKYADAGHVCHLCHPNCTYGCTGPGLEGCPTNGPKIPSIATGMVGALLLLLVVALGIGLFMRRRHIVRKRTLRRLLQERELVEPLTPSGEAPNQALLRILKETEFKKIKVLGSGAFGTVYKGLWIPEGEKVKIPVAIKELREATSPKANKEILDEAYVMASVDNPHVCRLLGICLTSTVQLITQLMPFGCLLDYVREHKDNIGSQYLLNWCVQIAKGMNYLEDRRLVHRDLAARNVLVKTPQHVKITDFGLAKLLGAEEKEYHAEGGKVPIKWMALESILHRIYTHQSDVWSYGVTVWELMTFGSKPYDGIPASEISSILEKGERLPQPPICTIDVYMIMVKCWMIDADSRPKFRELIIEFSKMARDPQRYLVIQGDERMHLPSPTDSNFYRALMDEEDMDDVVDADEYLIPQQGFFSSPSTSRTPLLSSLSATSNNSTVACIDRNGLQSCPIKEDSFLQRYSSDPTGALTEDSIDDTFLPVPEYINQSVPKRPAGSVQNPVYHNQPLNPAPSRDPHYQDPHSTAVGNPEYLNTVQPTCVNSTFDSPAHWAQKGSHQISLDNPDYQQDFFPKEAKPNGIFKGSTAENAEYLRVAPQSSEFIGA
T2 sequence (P09619 33-1106): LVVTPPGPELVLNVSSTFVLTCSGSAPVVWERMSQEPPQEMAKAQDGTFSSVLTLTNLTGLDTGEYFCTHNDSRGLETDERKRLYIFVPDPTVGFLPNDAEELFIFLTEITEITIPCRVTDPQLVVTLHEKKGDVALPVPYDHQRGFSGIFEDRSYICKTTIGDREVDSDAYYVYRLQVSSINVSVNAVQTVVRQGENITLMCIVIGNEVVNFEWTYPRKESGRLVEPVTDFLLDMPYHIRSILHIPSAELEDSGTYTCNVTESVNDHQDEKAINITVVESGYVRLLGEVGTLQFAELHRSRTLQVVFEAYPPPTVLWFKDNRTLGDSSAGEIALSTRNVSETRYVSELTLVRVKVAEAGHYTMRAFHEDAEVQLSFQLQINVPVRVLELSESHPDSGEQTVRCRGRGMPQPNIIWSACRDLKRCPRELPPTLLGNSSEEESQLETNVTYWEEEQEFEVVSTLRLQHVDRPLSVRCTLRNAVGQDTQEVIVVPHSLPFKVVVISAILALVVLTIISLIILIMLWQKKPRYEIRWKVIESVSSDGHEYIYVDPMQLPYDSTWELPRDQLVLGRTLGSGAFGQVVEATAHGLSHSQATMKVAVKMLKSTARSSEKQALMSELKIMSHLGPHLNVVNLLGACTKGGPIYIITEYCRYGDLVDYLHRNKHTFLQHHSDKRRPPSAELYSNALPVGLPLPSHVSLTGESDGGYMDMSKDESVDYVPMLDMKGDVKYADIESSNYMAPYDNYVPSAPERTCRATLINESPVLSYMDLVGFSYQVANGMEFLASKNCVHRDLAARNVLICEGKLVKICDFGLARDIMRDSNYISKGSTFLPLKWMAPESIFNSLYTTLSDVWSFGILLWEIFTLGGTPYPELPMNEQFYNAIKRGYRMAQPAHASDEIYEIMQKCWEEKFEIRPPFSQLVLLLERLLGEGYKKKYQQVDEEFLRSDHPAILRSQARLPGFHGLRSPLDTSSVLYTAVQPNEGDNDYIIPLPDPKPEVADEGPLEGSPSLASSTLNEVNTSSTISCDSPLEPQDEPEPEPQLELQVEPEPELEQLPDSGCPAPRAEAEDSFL

With `CCOC(=O)c1cnc2c(F)ccc(F)c2c1Sc1cccc(C(F)(F)F)c1` [Compound A713, 3-Ethoxycarbonyl-5,8-difluoro-4-(3-trifluoromethylphenylmercapto)quinoline], the IC50 (usually the midpoint of a concentration-inhibition curve) is more than 100 µM at EGFR and more than 50 µM against PDGFR.
On to `CCOC(=O)c1cnc2ccc(C(F)(F)F)cc2c1Nc1cccc(Br)c1` [Compound A716, 4-(3-Bromophenylamino)-3-ethoxycarbonyl-6-trifluoromethylquinoline], for which the IC50 against EGFR and against PDGFR was more than 100 µM in each case.
In the case of `CCOC(=O)c1cnc2ccc(C(F)(F)F)cc2c1Nc1cccc(C(F)(F)F)c1` [Compound A721, 3-Ethoxycarbonyl-4-(3-trifluoromethylphenylamino)-6-trifluoromethylquinoline], the IC50 on EGFR and against PDGFR was more than 100 µM throughout.
On to `CCOC(=O)c1cnc2ccc(C(F)(F)F)cc2c1Nc1ccc(C(F)(F)F)cc1` [Compound A722, 3-Ethoxycarbonyl-4-(4-trifluoromethylphenylamino)-6-trifluoromethylquinoline], for which the IC50 at EGFR and on PDGFR was more than 100 µM in each case.
Regarding `CCOC(=O)c1cnc2c(F)cc(F)cc2c1Sc1ccc(Cl)cc1` [Compound A730, 4-(4-Chlorophenylmercapto)-6,8-difluoro-3-ethoxycarbonylquinoline], the IC50 at EGFR and at PDGFR was more than 50 µM each time.
`CCOC(=O)c1cnc2cc(Cl)c(F)cc2c1Sc1ccc(Cl)cc1` [Compound A731, 7-Chloro-4-(4-chlorophenylmercapto)-6-fluoro-3-ethoxycarbonylquinoline]: the IC50 against EGFR and on PDGFR was more than 50 µM in each case.
For the compound `CCOC(=O)c1cnc2c(F)ccc(F)c2c1Sc1ccc(Cl)cc1` [Compound A732, 4-(4-Chlorophenylmercapto)-5,8-difluoro-3-ethoxycarbonylquinoline], the IC50 against EGFR is more than 100 µM; on PDGFR, more than 50 µM.
